Laboratory results reported in patent US6489165B2, “Chondrocyte-like cells useful for tissue engineering and methods” (The Regents of the University of California, priority 1997, dated 2002).

Legend:
[1] = test system: Human neonatal foreskin fibroblasts (HFFs); experiment: Immunohistochemical detection of matrix proteins in micromass cultures; type: cell-based
Protocol: Human neonatal foreskin fibroblasts (HFFs) were cultured in high density micromasses (2.0×10^7 cells/ml in 10 μl) and treated with 40 mM lactic acid and 200 nM staurosporine for a period of 24 hours as previously described by Examples 1 and 2. After the initial culture period, the cells were maintained in chemically defined medium consisting of minimum essential medium supplemented with a 1× mixture of Insulin-Transferrin-Selenium (Life Technologies, Gibco BRL, Gaithersburg, Md.), 4.5 g/l glucose, 10 mM β-glycerophosphate, and antibiotics. Dermal fibroblasts isolated from donor tissue were similarly cultured. Additionally, dermal fibroblasts were seeded on three-dimensional polymer scaffolds composed of a non-woven polyglycolic acid (PGA) (Davis and Geck, Danbury, Conn.) mesh reinforced in a dilute solution of 100 kDa poly(L-lactic acid) (PLLA) (Polysciences, Warrington, Pa.).
(§1) The production of sulfated proteoglycans was assessed by staining with 1% Alcian blue dye (pH 1.0), while monoclonal antibodies to collagen types I (Rockland, Gilbertsville, Pa.) and II (CIICl, Developmental Studies Hybridoma Bank, Iowa City, Iowa), aggrecan (Chemicon, Temecula, Calif.), and cartilage link protein (9/30/8-A-4, DSHB) were used for immuno-histochemical detection employing the Histostain-Plus king (Zymed, South San Francisco, Calif.) with a DAB substrate for final visualization. The expression of type I collagen and transforming growth factor-β1 (TGF-β1) was detected by northern hybridization. Cell-polymer composites were analyzed by scanning electron microscopy and were embedded in glycol methacrylate, sectioned, and stained with hematoxylin and eosin.

Human dermal fibroblasts [2] = experiment: Alcian blue staining of sulfated proteoglycan in monolayer or micromass cultures; type: cell-based; details: high density micromass, 40 mM lactate, 24 hours, vs untreated and monolayer cultures, P<0.05
Protocol: (§2) Experiments were designed to examine the effects of functional hypoxia and high density culture conditions on the phenotype of dermal fibroblasts. Human dermal fibroblasts obtained from neonatal foreskin samples were cultured in high density micromass cultures. Briefly, a 10 μl drop of a cell solution at a concentration of 2.0×10^4-4.0×10^4 cells/μl was plated in a 24-well polystyrene tissue culture dish. The cultures were incubated for one hour at 37° C., 5% CO2 to allow the cells to adhere to the bottom of the wells and to enhance cell:cell interactions. Following incubation, the cells were flooded with 1 ml of medium (bringing the final concentration to 2.0×10^5 to 4.0×10^5 cells/ml) containing exogenous factors that promote differentiation along the chondrogenic pathway. Cultures were made functionally hypoxic by the addition of lactate (10-40 mM) to the culture medium. The cells were cultured for a period of 24 hours.
Matrix Deposition. Treated micromass cultures synthesized highly negatively charged sulfated proteoglycan aggregates, as detected using histological and biochemical methods. […] The intensity of Alcian blue staining from guanidine-HCl extracts was measured using a microplate reader at a wavelength of 595 nm.
The expression of type I collagen and transforming growth factor-β1 (TGF-β1) was detected by northern hybridization.

Human dermal fibroblasts [3] = experiment: Northern hybridization of total cellular RNA with DIG-labeled probes; type: cell-based
Protocol: Gene Expression. […] The expression of TGF-β1 was also examined in cells cultured under identical conditions. […] Human dermal fibroblasts were cultured in monolayer without or with 40 mM lactate or in micromass cultures without or with 40 mM lactate at a density of 3.0×10^5 cell/ml for 24 hours. Total cellular RNA extracted using the Ultraspec isolation system (Biotecx Laboratories, Inc., Houston, Tex.) and fractionated by formaldehyde-agarose gel electrophoresis was hybridized with DIG-labeled probes to human chondroitin sulfate proteoglycan (aggrecan) core protein and TGF-β1. An equal amount of RNA (5 μg) was loaded in each lane and 28s ribosomal RNA served as an internal control.
Human dermal fibroblasts were cultured in monolayer without or with 40 mM lactate or in micromass cultures without or with 40 mM lactate at a density of 2.0×10^5 cell/ml for 24 hours. Total cellular RNA extracted using the Ultraspec isolation system (Biotecx Laboratories, Inc., Houston, Tex.) and fractionated by formaldehyde-agarose gel electrophoresis was hybridized with a DIG-labeled probe to human type I collagen. An equal amount of RNA (5 μg) was loaded in each lane and 28s ribosomal RNA served as an internal control.
Human dermal fibroblasts were seeded in micromass cultures at a density of 2.0×10^5 cells/ml for 24 hours in the presence of 40 mM lactate and varying concentrations of the protein kinase C inhibitors, staurosporine (0, 50, 100, 150, and 200 nM in lanes 1-5, respectively). Total cellular RNA extracted using the Ultraspec isolation system (Biotecx Laboratories, Inc., Houston, Tex.) and fractionated by formaldehyde-agarose gel electrophoresis was hybridized with DIG-labeled probes to human chondroitin sulfate proteoglycan (aggrecan) core protein and type I collagen. An equal amount RNA (5 μg) was loaded in each lane and 28s ribosomal RNA served as an internal control.
as §1

Human dermal fibroblasts [4] = details: 20 mM lactate; cited from earlier work
Human dermal fibroblasts [5] = experiment: Cell morphology in high density micromass cultures by microscopy; type: cell-based
Protocol: as §2
Human neonatal foreskin fibroblasts (HFFs) were cultured in high density micromasses (2.0×10^7 cells/ml in 10 μl) and treated with 40 mM lactic acid and 200 nM staurosporine for a period of 24 hours as previously described by Examples 1 and 2. […]

Human dermal fibroblasts [6] = experiment: [35S]-sulfate incorporation (normalized to [3H]-thymidine) in micromass cultures; type: cell-based
Protocol: Thus, human dermal fibroblasts were seeded in monolayer or micromass cultures at a density of 2.0×10^5 cell/ml for 24 hours and left untreated or treated with 40 mM lactate to induce hypoxia. Cultures were labeled with [^3H]-thymidine at 2 μCi/ml and Na2^35SO4 at 5 μCi/ml 24 hours prior to harvest. Relative levels of [^35S]-sulfate uptake (ratio of [^35S]-sulfate to [^3H]-thymidine) were determined by liquid scintillation counting of soluble cell extracts using a dual label DPM counting program. […] Human dermal fibroblasts were seeded in high density micromass cultures at a density of 2.0×10^5 cell/ml, treated with lactate at varying concentrations (0-80 mM) for a 24 hour period, and labeled with [^35S]-sulfate.

[7] = test system: fibroblast micromass cultures; experiment: Cell viability by direct microscopic observation; type: cell-based, human; details: staurosporine alone without lactate priming, at otherwise effective doses
Excerpt: Accordingly, practice of the invention includes treating the cells with the second agent so as to allow a PKA-dependent antagonistic pathway to predominate and to drive chondrogenic differentiation. Suitable chondrogenic differentiation agents include Bisindolylmaleimide I and calphostin C. PKA activators such as dibutyryl cAMP and adenylate cyclase activators (which results in cAMP production and PKA activity) like forskolin may also be effective. A preferred such agent is staurosporine (a protein kinase inhibitor to which PKC is most sensitive), preferably in a range of 150-200 nM.

[8] = whole mount micromass cultures, after three days
[9] = micromass 3.0×10^5 cell/ml, 40 mM lactate, 24 hours, vs untreated and monolayer
[10] = micromass 2.0×10^5 cell/ml, lactate 0-80 mM, 24 hours

Row | SMILES | type I collagen immunostaining ([1]; micromass cultures) | aggrecan immunostaining [1, 8] | cartilage link protein immunostaining [1, 8] | intensity of Alcian blue staining (sulfated proteoglycan content), 595 nm (Human dermal fibroblasts [2]) | TGF-β1 expression levels (Human dermal fibroblasts [3]; HFFs on PGA/PLLA discs, all groups) | expression of type I collagen (Human dermal fibroblasts [3]; HFFs on PGA/PLLA discs, treated vs untreated control) | type I collagen gene expression (Human dermal fibroblasts [3]; micromass 2.0×10^5 cell/ml, 40 mM lactate, 24 hours) | TGF-β1 gene expression (Human dermal fibroblasts [3]; [9]) | aggrecan core protein gene expression (Human dermal fibroblasts [3]; [9]) | hyaluronan synthesis (Human dermal fibroblasts [4]) | fibroblast outgrowth from the micromass cultures (Human dermal fibroblasts [5]; 40 mM lactate as compared to 20 mM lactate) | relative [35S]-sulfate incorporation (ratio to [3H]-thymidine) (Human dermal fibroblasts [6]; high density micromass, 40 mM lactate, 24 hours, vs corresponding cultures, P<0.05) | lactate concentration at which sulfate uptake peaks (Human dermal fibroblasts [6]; [10]) [mM] | sulfate uptake versus lactate concentration (Human dermal fibroblasts [6]; [10]) | cell viability [7] | aggrecan core protein gene expression (Human dermal fibroblasts [3]; micromass, 40 mM lactate plus 150 nM staurosporine, 24 hours) | aggrecan core protein gene expression (Human dermal fibroblasts [3]; micromass, 40 mM lactate plus 200 nM staurosporine, 24 hours) | type I collagen gene expression (Human dermal fibroblasts [3]; micromass, 40 mM lactate plus staurosporine 50-200 nM (all supplemented cultures), 24 hours) | visible effect in lactate-treated micromass cultures (Human dermal fibroblasts [5]; staurosporine about 5-20 nM) | sulfate incorporation (Human dermal fibroblasts [6]; staurosporine alone without lactate priming, at otherwise effective doses)
1 | CC(O)C(=O)O (centres unmarked) [lactate] | only on the periphery | Minimal staining | Minimal staining | significantly greater degree of staining | remained similar in all groups | greater in untreated control cultures | noticeable decrease | marked increase | marked increase | increased | less fibroblast outgrowth | Significantly greater levels | 20 to 40 | dose-dependent increase |  |  |  |  |  | 
2 | CN[C@@H]1C[C@H]2O[C@@](C)([C@@H]1OC)n1c3ccccc3c3c4c(c5c6ccccc6n2c5c31)C(=O)NC4 [staurosporine] |  |  |  |  |  |  |  |  |  |  |  |  |  |  | deleterious effect | notable increase | notable increase | marked decrease | no visible effect | decreased levels
